Values of other authors in patent US20230404915A1, “RAPIDLY […] COMPOSTIONS AND METHODS (Nicotine)” (ORCOSA INC., priority 2020, published 2023).

Target: nicotinic acetylcholine receptors (nAChRs) (Homo sapiens, UniProt P17787+P43681)
Conditions: peak levels of nicotine after smoking a cigarette; brain α4β2 nAChRs

nicotinic acetylcholine receptors (nAChRs), sequence (P43681 29-627 limits assumed): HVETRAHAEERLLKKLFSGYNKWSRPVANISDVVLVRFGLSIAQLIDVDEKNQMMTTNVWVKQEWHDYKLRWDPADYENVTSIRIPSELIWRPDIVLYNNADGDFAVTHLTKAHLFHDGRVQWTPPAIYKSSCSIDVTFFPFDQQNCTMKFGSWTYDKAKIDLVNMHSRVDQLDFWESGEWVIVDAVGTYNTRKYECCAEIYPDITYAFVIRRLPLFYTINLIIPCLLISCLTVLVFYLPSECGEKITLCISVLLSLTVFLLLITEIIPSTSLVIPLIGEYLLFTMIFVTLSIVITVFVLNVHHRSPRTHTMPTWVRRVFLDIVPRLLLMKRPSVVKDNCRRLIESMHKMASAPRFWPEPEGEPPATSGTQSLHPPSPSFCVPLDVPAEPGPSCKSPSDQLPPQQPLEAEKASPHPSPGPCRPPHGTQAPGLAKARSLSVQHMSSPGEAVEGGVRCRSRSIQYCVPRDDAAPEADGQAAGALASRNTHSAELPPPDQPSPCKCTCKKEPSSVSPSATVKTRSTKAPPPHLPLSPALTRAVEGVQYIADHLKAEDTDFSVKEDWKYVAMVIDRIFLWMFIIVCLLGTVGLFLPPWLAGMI
nicotinic acetylcholine receptors (nAChRs), sequence (P17787 26-502): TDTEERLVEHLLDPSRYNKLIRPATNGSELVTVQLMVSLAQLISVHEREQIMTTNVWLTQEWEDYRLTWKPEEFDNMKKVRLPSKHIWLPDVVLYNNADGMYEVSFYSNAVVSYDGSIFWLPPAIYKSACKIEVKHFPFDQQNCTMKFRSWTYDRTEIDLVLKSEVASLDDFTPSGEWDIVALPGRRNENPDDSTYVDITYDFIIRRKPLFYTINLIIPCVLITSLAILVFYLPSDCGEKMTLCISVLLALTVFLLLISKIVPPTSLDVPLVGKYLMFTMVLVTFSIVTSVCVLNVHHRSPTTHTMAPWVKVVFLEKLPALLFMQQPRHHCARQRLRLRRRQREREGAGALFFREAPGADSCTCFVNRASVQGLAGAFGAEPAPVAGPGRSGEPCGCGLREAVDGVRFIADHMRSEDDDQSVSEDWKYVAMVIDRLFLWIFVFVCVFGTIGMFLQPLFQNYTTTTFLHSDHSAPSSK

For CN1CCCC1c1cccnc1 (stereo not shown) [nicotine], the “binding to the nicotinic acetylcholine receptors (nAChRs), saturation” value is listed as “around 90%”.
